# Results published in paper PMC9814781, “Structure-based design of a dual-warhead covalent inhibitor of FGFR4” (Communications Chemistry, 2022).
# Key:
# MAP4K2 = MAP4K2 (Homo sapiens, UniProt Q12851); assay: Kinase selectivity profiling
# CK1γ3 = CK1γ3 (Homo sapiens, UniProt Q9Y6M4); assay: Kinase selectivity profiling
# PI3K(p120gamma) = PI3K(p120gamma) (Homo sapiens, UniProt P48736); assay: Kinase selectivity profiling
# CHK1(CHEK1) = CHK1(CHEK1) (Homo sapiens, UniProt O14757); assay: Kinase selectivity profiling
# CDK18/CycY = CDK18/CycY (Homo sapiens, UniProt Q07002); assay: Kinase selectivity profiling
# IGF1R = IGF1R (Homo sapiens, UniProt P08069); assay: Kinase selectivity profiling
# HIPK3 = HIPK3 (Homo sapiens, UniProt Q9H422); assay: Kinase selectivity profiling
# TYK2 = TYK2 (Homo sapiens, UniProt P29597); assay: Kinase selectivity profiling
# p70S6K = p70S6K (Homo sapiens, UniProt P23443); assay: Kinase selectivity profiling
# CDK16/CycY = CDK16/CycY (Homo sapiens, UniProt Q00536); assay: Kinase selectivity profiling
# PAK4 = PAK4 (Homo sapiens, UniProt O96013); assay: Kinase selectivity profiling
# PDGFRa = PDGFRa (Homo sapiens, UniProt P16234); assay: Kinase selectivity profiling
# TYRO3 = TYRO3 (Homo sapiens, UniProt Q06418); assay: Kinase selectivity profiling
# PKD2 = PKD2 (Homo sapiens, UniProt Q9BZL6); assay: Kinase selectivity profiling
# CK1α(CSNK1A1) = CK1α(CSNK1A1) (Homo sapiens, UniProt P48729); assay: Kinase selectivity profiling
# CK2α1/β = CK2α1/β (Homo sapiens, UniProt P68400); assay: Kinase selectivity profiling
# LCK = LCK (Homo sapiens, UniProt P06239); assay: Kinase selectivity profiling
# JAK3 = JAK3 (Homo sapiens, UniProt P52333); assay: Kinase selectivity profiling
# FGFR1 = FGFR1 (Homo sapiens, UniProt P11362); assay: Kinase selectivity profiling
# SRC = SRC (Homo sapiens, UniProt P12931); assay: Kinase selectivity profiling
# RSK2 = RSK2 (Homo sapiens, UniProt P51812); assay: Kinase selectivity profiling
# DCAMKL2 = DCAMKL2 (Homo sapiens, UniProt Q8N568); assay: Kinase selectivity profiling
# LYNb = LYNb (Homo sapiens, UniProt P07948); assay: Kinase selectivity profiling
# MAP3K3 = MAP3K3 (Homo sapiens, UniProt Q99759); assay: Kinase selectivity profiling
# DDR2 = DDR2 (Homo sapiens, UniProt Q16832); assay: Kinase selectivity profiling
# PAK1 = PAK1 (Homo sapiens, UniProt Q13153); assay: Kinase selectivity profiling
# TTK = TTK (Homo sapiens, UniProt P33981); assay: Kinase selectivity profiling
# KIT = KIT (Homo sapiens, UniProt P10721); assay: Kinase selectivity profiling
# FLT4 (VEGFR3) = FLT4 (VEGFR3) (Homo sapiens, UniProt P35916); assay: Kinase selectivity profiling
# parental Ba/F3 cells = assay: Ba/F3 cell viability assay; type: cell-based; settings: Mus musculus, BaF3, 72 h, CCK-8
# CK1γ2 = CK1γ2 (Homo sapiens, UniProt P78368); assay: Kinase selectivity profiling
# PIK3CD/PIK3R1 = PIK3CD/PIK3R1 (Homo sapiens, UniProt O00329); assay: Kinase selectivity profiling
# TGFβR2 = TGFβR2 (Homo sapiens, UniProt P37173); assay: Kinase selectivity profiling
# EPHB3 = EPHB3 (Homo sapiens, UniProt P54753); assay: Kinase selectivity profiling
# CK1δ = CK1δ (Homo sapiens, UniProt P48730); assay: Kinase selectivity profiling
# EPHA2 = EPHA2 (Homo sapiens, UniProt P29317); assay: Kinase selectivity profiling
# p38β = p38β (Homo sapiens, UniProt Q15759); assay: Kinase selectivity profiling
# KIT[D816V] = KIT[D816V] (Homo sapiens, UniProt P10721, D816V); assay: Kinase selectivity profiling
# KHS = KHS (Homo sapiens, UniProt Q9Y4K4); assay: Kinase selectivity profiling
# ABL1 = ABL1 (Homo sapiens, UniProt P00519); assay: Kinase selectivity profiling
# MST2 = MST2 (Homo sapiens, UniProt Q13188); assay: Kinase selectivity profiling
# CK1α(CSNK1A1), sequence (P48729 whole entry): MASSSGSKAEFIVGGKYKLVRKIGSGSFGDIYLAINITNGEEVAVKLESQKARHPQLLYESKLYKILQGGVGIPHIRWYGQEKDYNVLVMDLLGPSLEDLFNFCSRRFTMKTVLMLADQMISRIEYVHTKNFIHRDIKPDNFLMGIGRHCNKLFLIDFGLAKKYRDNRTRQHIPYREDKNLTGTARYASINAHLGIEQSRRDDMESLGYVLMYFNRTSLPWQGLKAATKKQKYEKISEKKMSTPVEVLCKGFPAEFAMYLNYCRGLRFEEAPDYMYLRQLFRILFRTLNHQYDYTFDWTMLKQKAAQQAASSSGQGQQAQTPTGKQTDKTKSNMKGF
# CDK18/CycY, sequence (Q07002 whole entry): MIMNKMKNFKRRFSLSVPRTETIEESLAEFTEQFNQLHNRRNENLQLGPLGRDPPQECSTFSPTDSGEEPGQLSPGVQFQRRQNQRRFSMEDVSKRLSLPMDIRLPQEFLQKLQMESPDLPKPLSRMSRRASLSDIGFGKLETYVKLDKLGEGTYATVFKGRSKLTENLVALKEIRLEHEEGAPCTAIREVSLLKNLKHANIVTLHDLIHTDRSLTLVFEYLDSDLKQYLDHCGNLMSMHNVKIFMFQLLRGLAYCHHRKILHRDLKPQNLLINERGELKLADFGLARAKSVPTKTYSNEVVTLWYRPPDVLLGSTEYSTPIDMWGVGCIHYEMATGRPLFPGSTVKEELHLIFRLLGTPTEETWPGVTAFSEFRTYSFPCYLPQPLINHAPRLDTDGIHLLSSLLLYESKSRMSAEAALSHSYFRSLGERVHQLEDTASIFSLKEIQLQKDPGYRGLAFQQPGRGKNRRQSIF
# CDK18/CycY, sequence (Q8ND76 whole entry partner): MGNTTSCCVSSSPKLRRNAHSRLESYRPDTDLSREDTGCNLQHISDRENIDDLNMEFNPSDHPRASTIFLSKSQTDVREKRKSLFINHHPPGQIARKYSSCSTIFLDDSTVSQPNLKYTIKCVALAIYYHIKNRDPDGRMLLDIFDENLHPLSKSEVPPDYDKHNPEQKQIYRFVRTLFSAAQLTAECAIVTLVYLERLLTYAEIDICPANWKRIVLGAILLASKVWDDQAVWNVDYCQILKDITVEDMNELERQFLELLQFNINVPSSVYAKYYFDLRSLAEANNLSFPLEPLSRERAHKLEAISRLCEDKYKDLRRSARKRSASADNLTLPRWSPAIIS
# ABL1, sequence (P00519 whole entry): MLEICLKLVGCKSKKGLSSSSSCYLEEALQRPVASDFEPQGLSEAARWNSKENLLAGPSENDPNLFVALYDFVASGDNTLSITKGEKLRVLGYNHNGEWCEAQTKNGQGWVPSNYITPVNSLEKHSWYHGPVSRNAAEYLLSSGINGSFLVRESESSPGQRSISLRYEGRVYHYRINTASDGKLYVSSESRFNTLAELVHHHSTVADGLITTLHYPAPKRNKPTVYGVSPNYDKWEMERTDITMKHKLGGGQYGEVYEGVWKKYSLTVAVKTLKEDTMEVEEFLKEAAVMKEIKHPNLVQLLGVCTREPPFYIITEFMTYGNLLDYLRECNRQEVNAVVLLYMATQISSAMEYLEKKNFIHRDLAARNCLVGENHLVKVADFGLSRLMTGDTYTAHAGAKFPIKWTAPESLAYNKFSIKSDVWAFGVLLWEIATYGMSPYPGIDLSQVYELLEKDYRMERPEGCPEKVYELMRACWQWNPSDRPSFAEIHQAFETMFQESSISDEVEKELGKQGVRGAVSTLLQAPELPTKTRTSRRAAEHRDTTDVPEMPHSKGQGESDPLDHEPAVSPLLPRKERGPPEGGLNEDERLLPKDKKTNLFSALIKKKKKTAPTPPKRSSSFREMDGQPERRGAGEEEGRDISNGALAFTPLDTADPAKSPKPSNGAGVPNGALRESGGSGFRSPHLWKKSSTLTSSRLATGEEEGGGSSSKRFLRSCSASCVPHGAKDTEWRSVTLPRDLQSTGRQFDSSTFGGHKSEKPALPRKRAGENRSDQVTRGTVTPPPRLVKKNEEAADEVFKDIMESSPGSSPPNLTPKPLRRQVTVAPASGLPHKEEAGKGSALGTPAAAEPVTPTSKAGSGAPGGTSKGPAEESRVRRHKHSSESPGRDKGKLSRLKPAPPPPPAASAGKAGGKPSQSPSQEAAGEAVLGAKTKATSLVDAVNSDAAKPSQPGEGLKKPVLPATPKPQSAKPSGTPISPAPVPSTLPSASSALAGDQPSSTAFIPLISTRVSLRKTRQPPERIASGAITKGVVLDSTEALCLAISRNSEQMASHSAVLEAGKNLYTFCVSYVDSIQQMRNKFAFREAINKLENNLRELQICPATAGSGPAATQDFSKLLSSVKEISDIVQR
# LCK, sequence (P06239 whole entry): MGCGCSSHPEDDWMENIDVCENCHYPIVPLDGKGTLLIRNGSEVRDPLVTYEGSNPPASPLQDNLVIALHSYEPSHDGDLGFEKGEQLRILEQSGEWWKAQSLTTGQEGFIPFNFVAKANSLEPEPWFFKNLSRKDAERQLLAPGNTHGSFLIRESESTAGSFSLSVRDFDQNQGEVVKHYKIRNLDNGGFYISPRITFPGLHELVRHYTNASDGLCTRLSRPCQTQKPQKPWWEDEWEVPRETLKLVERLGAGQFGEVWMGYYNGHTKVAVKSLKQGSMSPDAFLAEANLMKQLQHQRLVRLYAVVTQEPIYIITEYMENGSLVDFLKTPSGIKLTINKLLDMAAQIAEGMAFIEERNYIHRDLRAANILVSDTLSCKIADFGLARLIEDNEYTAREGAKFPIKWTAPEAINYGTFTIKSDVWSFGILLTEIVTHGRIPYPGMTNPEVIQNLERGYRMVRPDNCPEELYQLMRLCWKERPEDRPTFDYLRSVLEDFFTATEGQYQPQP
# PI3K(p120gamma), sequence (P48736 whole entry): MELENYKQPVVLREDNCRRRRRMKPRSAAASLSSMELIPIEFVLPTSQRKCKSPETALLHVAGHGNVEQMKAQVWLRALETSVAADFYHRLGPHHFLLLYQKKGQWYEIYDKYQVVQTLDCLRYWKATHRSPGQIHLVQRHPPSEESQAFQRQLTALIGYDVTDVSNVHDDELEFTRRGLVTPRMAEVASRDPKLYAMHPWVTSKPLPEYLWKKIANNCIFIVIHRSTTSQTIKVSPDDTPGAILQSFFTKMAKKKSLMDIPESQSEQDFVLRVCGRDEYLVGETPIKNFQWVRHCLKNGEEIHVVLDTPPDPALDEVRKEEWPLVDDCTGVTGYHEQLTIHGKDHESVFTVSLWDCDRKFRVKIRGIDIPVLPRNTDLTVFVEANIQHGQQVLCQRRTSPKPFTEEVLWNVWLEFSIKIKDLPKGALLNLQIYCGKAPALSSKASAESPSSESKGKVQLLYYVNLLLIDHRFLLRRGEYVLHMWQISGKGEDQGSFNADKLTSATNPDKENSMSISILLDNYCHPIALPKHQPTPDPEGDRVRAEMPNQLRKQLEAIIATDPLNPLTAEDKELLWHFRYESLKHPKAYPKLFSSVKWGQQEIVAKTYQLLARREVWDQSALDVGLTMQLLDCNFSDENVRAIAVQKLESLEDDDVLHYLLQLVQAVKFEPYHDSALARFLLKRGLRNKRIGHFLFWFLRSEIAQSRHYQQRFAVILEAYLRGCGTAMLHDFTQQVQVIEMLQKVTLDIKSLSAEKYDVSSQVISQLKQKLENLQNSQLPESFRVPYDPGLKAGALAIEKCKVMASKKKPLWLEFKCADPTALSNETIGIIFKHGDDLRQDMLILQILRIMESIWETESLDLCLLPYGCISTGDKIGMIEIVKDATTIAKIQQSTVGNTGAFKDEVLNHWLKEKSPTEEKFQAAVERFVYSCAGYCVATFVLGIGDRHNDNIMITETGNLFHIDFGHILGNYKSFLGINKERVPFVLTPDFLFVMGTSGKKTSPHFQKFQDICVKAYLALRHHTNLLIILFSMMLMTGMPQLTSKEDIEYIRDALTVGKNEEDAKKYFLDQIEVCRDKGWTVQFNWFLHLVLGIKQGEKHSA
# PKD2, sequence (Q9BZL6 whole entry): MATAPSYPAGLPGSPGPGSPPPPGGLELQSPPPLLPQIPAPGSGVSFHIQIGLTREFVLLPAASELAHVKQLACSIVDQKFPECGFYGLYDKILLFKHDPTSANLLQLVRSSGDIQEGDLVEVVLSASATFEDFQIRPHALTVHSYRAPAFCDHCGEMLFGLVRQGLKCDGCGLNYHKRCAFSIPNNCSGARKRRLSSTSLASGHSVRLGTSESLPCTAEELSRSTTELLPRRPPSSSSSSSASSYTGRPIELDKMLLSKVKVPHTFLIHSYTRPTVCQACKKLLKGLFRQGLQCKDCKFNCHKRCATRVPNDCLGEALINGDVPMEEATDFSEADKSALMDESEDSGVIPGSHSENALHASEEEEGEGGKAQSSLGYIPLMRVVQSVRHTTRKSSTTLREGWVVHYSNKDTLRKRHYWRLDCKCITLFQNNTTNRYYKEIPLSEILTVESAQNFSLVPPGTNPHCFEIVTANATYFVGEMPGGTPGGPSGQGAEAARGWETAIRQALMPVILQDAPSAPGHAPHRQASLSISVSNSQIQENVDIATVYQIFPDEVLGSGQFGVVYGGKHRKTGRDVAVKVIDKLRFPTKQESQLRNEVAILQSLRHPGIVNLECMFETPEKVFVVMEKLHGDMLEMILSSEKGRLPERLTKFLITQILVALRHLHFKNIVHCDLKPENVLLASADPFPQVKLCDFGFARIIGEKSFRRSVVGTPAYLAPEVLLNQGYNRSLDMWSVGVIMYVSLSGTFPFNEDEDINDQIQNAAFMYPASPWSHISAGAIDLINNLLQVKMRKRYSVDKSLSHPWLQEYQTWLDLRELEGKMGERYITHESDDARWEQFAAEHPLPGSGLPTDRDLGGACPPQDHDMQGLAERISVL
structure (smiles),measurement,setting,value
C=CC(=O)Nc1ccccc1Nc1ncc2c(n1)N(CCCN1CCN(C(=O)C=C)CC1)C(=O)N(c1cc(OC)cc(OC)c1)C2 [CXF-009],inhibition at 1 µM,MAP4K2,1.43%
same,inhibition at 1 µM,CK1γ3,-7.86%
same,inhibition at 1 µM,PI3K(p120gamma),15%
same,inhibition at 1 µM,CHK1(CHEK1),1.53%
same,inhibition at 1 µM,CDK18/CycY,-3.74%
same,inhibition at 1 µM,IGF1R,-2.13%
same,inhibition at 1 µM,HIPK3,-4.6%
same,inhibition at 1 µM,TYK2,-5.05%
same,inhibition at 1 µM,p70S6K,1.69%
same,inhibition at 1 µM,CDK16/CycY,-7.9%
same,inhibition at 1 µM,PAK4,6.5%
same,inhibition at 1 µM,PDGFRa,-0.91%
same,inhibition at 1 µM,TYRO3,0.8%
same,inhibition at 1 µM,PKD2,0.08%
same,inhibition at 1 µM,CK1α(CSNK1A1),2.6%
same,inhibition at 1 µM,CK2α1/β,-3.22%
same,inhibition at 1 µM,LCK,-3.46%
same,inhibition at 1 µM,JAK3,1.94%
same,inhibition at 1 µM,FGFR1,4.98%
same,inhibition at 1 µM,SRC,3.48%
same,inhibition at 1 µM,RSK2,2.24%
same,inhibition at 1 µM,DCAMKL2,18.9%
same,inhibition at 1 µM,LYNb,7.62%
same,inhibition at 1 µM,MAP3K3,-1.62%
same,inhibition at 1 µM,DDR2,2.15%
same,inhibition at 1 µM,PAK1,3.22%
same,inhibition at 1 µM,TTK,6.62%
same,inhibition at 1 µM,KIT,-14.3%
same,inhibition at 1 µM,FLT4 (VEGFR3),0.74%
same,IC50,parental Ba/F3 cells,> 5 µM
same,inhibition at 1 µM,CK1γ2,-4.8%
same,inhibition at 1 µM,PIK3CD/PIK3R1,-44.4%
same,inhibition at 1 µM,TGFβR2,-10.4%
same,inhibition at 1 µM,EPHB3,-0.82%
same,inhibition at 1 µM,CK1δ,-1.29%
same,inhibition at 1 µM,EPHA2,2.12%
same,inhibition at 1 µM,p38β,2.25%
same,inhibition at 1 µM,KIT[D816V],-6.19%
same,inhibition at 1 µM,KHS,4.11%
same,inhibition at 1 µM,ABL1,-1.44%
same,inhibition at 1 µM,MST2,-8.12%
